Six compounds from patent US20070232492A1, “Herbicidal Composition” (Ishihara Sangyo Kaisha, LTD., priority 2004, published 2007) can be followed below.

Read-outs that look alike come from different tables or passages of the source.

What all share (type): in vivo
In assay [1] the test system is barnyardgrass (Echinochloa oryzicola vasing). Kind of assay: Growth inhibition of barnyardgrass in paddy soil pots, application under submerged condition, visual rating (observed value) and Colby expected value. As to conditions: for inhibition at 500 g/ha: 5 g/a; for inhibition at 1000 g/ha: 10 g/a.
Excerpt: (§1) When the herbicidal activity in a case where two active ingredients are combined, is larger than the simple sum of the respective herbicidal activities of the two active ingredients (the expected activity), it is called a synergistic effect. The activity expected by the combination of two active ingredients can be calculated as follows (Colby S. R., “Weed”, vol. 15, p. 20-22, 1967). E=p+q−(p×q÷100) where p: growth inhibition rate when treated with x (g/a) of herbicide X,
(§2) q: growth inhibition rate when treated with y (g/a) of herbicide Y,
(§3) E: growth inhibition rate expected when treated with x (g/a) of herbicide X and y (g/a) of herbicide Y.
(§4) Namely, when the actual growth inhibition rate (observed value) is larger than the growth inhibition rate by the above calculation (expected value), the activity by the combination can be regarded as showing a synergistic effect.
Paddy field soil was put into a 1/10,000 are pot, and seeds of barnyardgrass (Echinochloa oryzicola vasing) were sown and left to stand under an irrigated condition with a water depth of 3.5 cm. When barnyardgrass reached 2.0 to 2.5 leaf stage, wettable powders of compound A2 and compound (B1.1) were, respectively, diluted with water and applied under submerged condition so that the active ingredients became the prescribed amounts, respectively. The state of growth was visually observed 21 days after application, and the growth inhibition rate (%) evaluated in accordance with the following evaluation standard (observed value) and the growth inhibition rate (%) calculated by the above-mentioned Colby method (expected value) are shown in Table 1.
(§5) Growth inhibition rate (%)=0% (equivalent to the non-treated area) to 100% (complete kill)
(§6) Paddy field soil was put into a 1/10,000 are pot, and seeds of barnyardgrass (Echinochloa oryzicola vasing) were sown and left to stand under an irrigated condition with a water depth of 3.5 cm. When barnyardgrass reached 2.0 to 2.5 leaf stage, wettable powders of compound A2 and compound (B2.1) were, respectively, diluted with water and applied under submerged condition so that the active ingredients became the prescribed amounts, respectively. The state of growth was visually observed 21 days after application, and evaluation and calculation were carried out in the same manner as in the above Test Example 1.
as §6, with “leaf stage, a wettable powder” for “leaf stage, wettable powders”, “a wettable powder of compound” for “stage, wettable powders of compound”, “A2 and an emulsifiable concentrate of compound (B3.1)” for “A2 and compound (B2.1)”, “of compound (B3.1) were, respectively,” for “and compound (B2.1) were, respectively,”
as §6, with “(B4.1)” for “(B2.1)”
Paddy field soil was put into a 1/10,000 are pot, and seeds of barnyardgrass (Echinochloa oryzicola vasing) were sown and left to stand under an irrigated condition with a water depth of 3.5 cm. […]

Assay [2] deals with flatsedge (Cyperus serotinus). Kind of assay: Growth inhibition of flatsedge (planted tubers) in paddy soil pots, application under submerged condition, visual rating and Colby expected value.
Excerpt: as §1, §2, §3, §4, §5
Paddy field soil was put into a 1/10,000 are pot, and tubers of flatsedge (Cyperus serotinus) were planted and left to stand under an irrigated condition with a water depth of 3.5 cm. When flatsedge reached 2.8 to 3.2 leaf stage, wettable powders of compound A2 and compound (B1.2) were, respectively, diluted with water and applied under submerged condition so that the active ingredients became the prescribed amounts, respectively. The state of growth was visually observed 29 days after application, and evaluation and calculation were carried out in the same manner as in the above Test Example 1.
Paddy field soil was put into a 1/3,000 are pot, and tubers of flatsedge (Cyperus serotinus) were planted and left to stand under an irrigated condition with a water depth of 3.5 cm. When flatsedge reached 4 leaf stage, a wettable powder of compound A2 and an emulsifiable concentrate of compound C4 were, respectively, diluted with water and applied under submerged condition so that the active ingredients became the prescribed amounts, respectively. The state of growth was visually observed 21 days after application, and the growth inhibition rate (%) evaluated in the same manner as in the above Test Example 1 (observed value) and the growth inhibition rate (%) calculated by the above-mentioned Colby method (expected value) are shown in Table 32.
Paddy field soil was put into a 1/10,000 are pot, and tubers of flatsedge (Cyperus serotinus) were planted and left to stand under an irrigated condition with a water depth of 3.5 cm. When flatsedge reached 2.5 to 3.0 leaf stage, wettable powders of compound A2, compound (D2.3) and compound (B4.1) were, respectively, diluted with water and applied under submerged condition so that the active ingredients became the prescribed amounts, respectively. The state of growth was visually observed 30 days after application, and evaluated in the same manner as in the above Test Example 1.
Paddy field soil was put into a 1/10,000 are pot, and tubers of flatsedge (Cyperus serotinus) were planted and left to stand under an irrigated condition with a water depth of 3.5 cm. When flatsedge reached 2.5 to 3.0 leaf stage, wettable powders of compound A2, compound (D2.3) and compound (B6.1) were, respectively, diluted with water and applied under submerged condition so that the active ingredients became the prescribed amounts, respectively. The state of growth was visually observed 30 days after application, and evaluated in the same manner as in the above Test Example 1.
Paddy field soil was put into a 1/10,000 are pot, and tubers of flatsedge (Cyperus serotinus) were planted and left to stand under an irrigated condition with a water depth of 3.5 cm. When flatsedge reached 2.5 to 3.0 leaf stage, wettable powders of compound A2, compound (D2.3) and compound (B8.1) were, respectively, diluted with water and applied under submerged condition so that the active ingredients became the prescribed amounts, respectively. […]

The test system of assay [3] is Japanese bulrush (Scirpus juncoides). Kind of assay: Growth inhibition of Japanese bulrush in paddy soil pots, application under submerged condition, visual rating and Colby expected value. Conditions: 2 leaf stage, 19 days after application.
Excerpt: as §1, §2, §3, §4, §5
(§7) Paddy field soil was put into a 1/10,000 are pot, and seeds of Japanese bulrush (Scirpus juncoides) were sown and left to stand under an irrigated condition with a water depth of 3.5 cm. When Japanese bulrush reached 2.3 to 2.6 leaf stage, a wettable powder of compound A2 and granules of compound (B7.1) were, respectively, diluted with water and applied under submerged condition so that the active ingredients became the prescribed amounts, respectively. The state of growth was visually observed 10 days after application, and evaluation and calculation were carried out in the same manner as in the above Test Example 1.
as §7, with “an emulsifiable concentrate” for “granules”, “(B3.1)” for “(B7.1)”
Paddy field soil was put into a 1/10,000 are pot, and seeds of Japanese bulrush (Scirpus juncoides) were sown and left to stand under an irrigated condition with a water depth of 3.5 cm. When Japanese bulrush reached 2 leaf stage, wettable powders of compound A2, C2 and C4 and granules of compound C6 were, respectively, diluted with water and applied under submerged condition so that the active ingredients became the prescribed amounts, respectively.
Paddy field soil was put into a 1/10,000 are pot, and seeds of Japanese bulrush (Scirpus juncoides) were sown and left to stand under an irrigated condition with a water depth of 3.5 cm. When Japanese bulrush reached 2 leaf stage, wettable powders of compound A2, C2 and C4 and granules of compound C6 were, respectively, diluted with water and applied under submerged condition so that the active ingredients became the prescribed amounts, respectively. The state of growth was visually observed 19 days after application, and the growth inhibition rate (%) evaluated in the same manner as in the above Test Example 1 (observed value) and the growth inhibition rate (%) calculated by the above-mentioned Colby method (expected value) are shown in Tables 36, 37 and 38.
Paddy field soil was put into a 1/10,000 are pot, and seeds of Japanese bulrush (Scirpus juncoides) were sown and left to stand under an irrigated condition with a water depth of 3.5 cm. When Japanese bulrush reached 3 leaf stage, wettable powders of compound A2 and compound (D2.2) were, respectively, diluted with water and applied under submerged condition so that the active ingredients became the prescribed amounts, respectively. […]

The mark [4] stands for this setting: Echinochloa oryzicola, soil, 336 h, 2.8 to 3.4 leaf stage, 14 days after application, Test Examples 66-72, read-out: Growth inhibition rate (%) Observed.
[5] abbreviates: Echinochloa oryzicola, soil, 504 h, 2.0 to 2.5 leaf stage, 21 days after application, read-out: Growth inhibition rate (%) Observed.

As for `COc1ccsc1CN(C(=O)CCl)c1c(C)cccc1C` [Compound (B3.2), thenylchlor], in assay [1] (Echinochloa oryzicola, soil, 504 h, 0.938 g/a, 2.8 to 3.2 leaf stage, 21 days after application, read-out: Growth inhibition rate (%) Observed), the inhibition at 93.8 g/ha is 5%. In addition, the inhibition at 94 g/ha in assay [1] (Echinochloa oryzicola, soil, 504 h, 0.94 g/a, 2.8 to 3.2 leaf stage, 21 days after application, Test Examples 39-43, read-out: Growth inhibition rate (%) Observed) stood at 0%. Besides, the inhibition at 187.5 g/ha in assay [1] (Echinochloa oryzicola, soil, 504 h, 1.875 g/a, 2.8 to 3.2 leaf stage, 21 days after application, read-out: Growth inhibition rate (%) Observed) is 27%. The inhibition at 188 g/ha in assay [1] (Echinochloa oryzicola, soil, 504 h, 1.88 g/a, 2.8 to 3.2 leaf stage, 21 days after application, Test Examples 39-43, read-out: Growth inhibition rate (%) Observed) was 15%. Also, in assay [2] (Cyperus serotinus, soil, 720 h, 2.5 g/a, 2.5 to 3.0 leaf stage, 30 days after application, Test Examples 46-60, read-out: Growth inhibition rate (%) Observed), the inhibition at 250 g/ha was 35%.

Consider `CS(=O)(=O)c1ccc(C(=O)C2=C(Sc3ccccc3)C3CCC(C3)C2=O)c(Cl)c1` (stereo not drawn) [Compound (B4.1), benzobicyclon], for which the inhibition at 100 g/ha in assay [1] (Echinochloa oryzicola, soil, 504 h, 1 g/a, 2.0 to 2.5 leaf stage, 21 days after application, read-out: Growth inhibition rate (%) Observed) stood at 13%. The inhibition at 200 g/ha in assay [1] (Echinochloa oryzicola, soil, 504 h, 2 g/a, 2.0 to 2.5 leaf stage, 21 days after application, read-out: Growth inhibition rate (%) Observed) was 33%; in assay [2] (Cyperus serotinus, soil, 720 h, 2 g/a, 2.5 to 3.0 leaf stage, 30 days after application, Test Examples 46-60, read-out: Growth inhibition rate (%) Observed), 60%.

For `CC(C)(NC(=O)C(Br)C(C)(C)C)c1ccccc1` (stereo not drawn) [Compound (B6.1), bromobutide], the inhibition at 500 g/ha in assay [1] (setting [4]) worked out at 10%; in assay [1] (setting [5]), 0%. The inhibition at 1000 g/ha in assay [1] (setting [4]) stood at 10%; in assay [1] (setting [5]), 10%; in assay [2] (Cyperus serotinus, soil, 720 h, read-out: Growth inhibition rate (%) Observed), 35%.

Regarding `CCN(CC)C(=O)n1cnc(S(=O)(=O)c2c(C)cc(C)cc2C)n1` [Compound (B9.1), cafenstrole], the “Growth inhibition rate (%) Observed” value in assay [1] (0.525 g/a, 2.8 to 3.2 leaf stage, 21 days after application) stood at 2%; in assay [1] (0.788 g/a, 2.1 to 3.2 leaf stage, 21 days after application), 57%; in assay [1] (0.788 g/a, 2.8 to 3.2 leaf stage, 19 days after application, Test Examples 62-65) it was 10%; in assay [1] (1.05 g/a, 2.8 to 3.2 leaf stage, 21 days after application) it was 10%; in assay [1] (1.58 g/a, 2.8 to 3.2 leaf stage, 19 days after application, Test Examples 62-65), 10%; in assay [2] (2.1 g/a, 2.5 to 3.0 leaf stage, 30 days after application, Test Examples 46-60), 35%.

Take `CCC1(CC2(c3cccc(Cl)c3)CO2)C(=O)c2ccccc2C1=O` (stereo not drawn) [Compound (B10.1), indanofan]: in assay [1] (Echinochloa oryzicola, soil, 504 h, 0.375 g/a, 2.8 to 3.2 leaf stage, 21 days after application, read-out: Growth inhibition rate (%) Observed), the inhibition at 37.5 g/ha was found to be 0%. The inhibition at 75 g/ha in assay [1] (Echinochloa oryzicola, soil, 504 h, 0.75 g/a, 2.8 to 3.2 leaf stage, 21 days after application, read-out: Growth inhibition rate (%) Observed) stood at 13%. The inhibition at 56.3 g/ha in assay [1] (Echinochloa oryzicola, soil, 528 h, 0.563 g/a, 2.1 to 3.2 leaf stage, 22 days after application, read-out: Growth inhibition rate (%) Observed) turned out to be 40%. In addition, in assay [2] (Cyperus serotinus, soil, 720 h, 1.5 g/a, 2.5 to 3.0 leaf stage, 30 days after application, Test Examples 46-60, read-out: Growth inhibition rate (%) Observed), the inhibition at 150 g/ha came to 25%.

Take `CCOC(=O)CCCOc1ccc(Cl)cc1C` [Compound C4, MCPB ethyl]: the “Growth inhibition rate (%) Observed” value is listed as 33% in assay [2] (2.0 g/a, 4 leaf stage, 21 days after application); 57% in assay [2] (2.4 g/a, 4 leaf stage, 21 days after application); 10% in assay [3] (0.5 g/a, Test Example 33); 27% in assay [3] (1.0 g/a, Test Example 33); 20% in assay [3] (1.5 g/a, Test Example 34); 55% in assay [3] (2.0 g/a, Test Example 33). Further, in assay [3] (10 g/a, Test Example 34), the “Growth inhibition rate (%) Observed” value is recorded as 68%.
